Marks after values point to notes of the source that are not given here.
Experiments:
Type in all cases: in vivo
[1] = tested on: Septoria nodorum; assay: Test F: wheat glume blotch on wheat seedlings, sprayed the day before inoculation, visual disease rating; details: 100 = 100% disease control; for pest or weed control at 200 ppm: Parastagonospora nodorum, 264 h
Method in brief: (§1)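 Ratings reflect a 200 ppm spray (≈500 g/ha) unless marked as 40 ppm. Plants were sprayed to run-off. The spray suspension was acetone/purified water 50/50 containing 250 ppm Trem 014, after first dissolving compound in acetone at 3% of final volume.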

[2] = tested on: Botrytis cinerea; assay: Test C: tomato Botrytis on tomato seedlings, sprayed the day before inoculation, visual disease rating; details: 100 = 100% disease control; for pest or weed control at 200 ppm: Botrytis cinerea, 120 h
Method in brief: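 Disease scored by eye on tomato seedlings inoculated with Botrytis cinerea a day after treatment. Treatment was a run-off spray at 200 ppm (equivalent to 500 g/ha), or 40 ppm where marked, in acetone/water carrying 250 ppm Trem 014.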

[3] = tested on: Alternaria solani; assay: Test D: tomato early blight, sprayed the day before inoculation, visual disease rating; details: 100 = 100% disease control; for pest or weed control at 200 ppm: Alternaria solani, 168 h
Method in brief: as §1

[4] = tested on: Erysiphe graminis f. sp. tritici; assay: Test J: wheat powdery mildew on wheat seedlings, sprayed the day before inoculation, visual disease rating; details: 100 = 100% disease control; for pest or weed control at 200 ppm: Blumeria graminis, 168 h
Method in brief: as §1

[5] = tested on: Puccinia recondita f. sp. tritici; assay: Test I: wheat leaf rust on wheat seedlings, sprayed the day before inoculation, visual disease rating; details: 100 = 100% disease control; for pest or weed control at 200 ppm: Puccinia recondita, 168 h
Method in brief: as §1

[6] = tested on: Septoria tritici; assay: Test G: wheat leaf blotch on wheat seedlings, sprayed the day before inoculation, visual disease rating; details: 100 = 100% disease control; for pest or weed control at 200 ppm: Zymoseptoria tritici, 504 h
Method in brief: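 Disease was rated visually after Septoria tritici inoculation, 48 h saturated incubation at 24°C and 19 days in a 20°C growth chamber. Inoculation followed one day after run-off spraying of seedlings with compound at 200 ppm (≈500 g/ha) or, where marked, 40 ppm, formulated in acetone/water with surfactant.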

[7] = tested on: Puccinia recondita f. sp. tritici; assay: Test H: wheat leaf rust, test suspension sprayed after inoculation of wheat seedlings, visual disease rating; details: 100 = 100% disease control; for pest or weed control at 200 ppm: Puccinia recondita, 96 h
Excerpt: General protocol for preparing test suspensions for Tests A-J: The test compounds were first dissolved in acetone in an amount equal to 3% of the final volume and then suspended at the desired concentration (in ppm) in acetone and purified water (50/50 mix) containing 250 ppm of the surfactant Trem® 014 (polyhydric alcohol esters). The resulting test suspensions were then used in tests A-J. Spraying a 200 ppm test suspension to the point of run-off on the test plants was the equivalent of a rate of 500 g/ha. […] Wheat seedlings were inoculated with a spore suspension of Puccinia recondita f. sp. tritici (the causal agent of wheat leaf rust) and incubated in a saturated atmosphere at 20° C. for 24 h, and then moved to a growth chamber at 20° C. for 2 days. […] A dash (-) indicates no test results. All results are for 200 ppm except where followed by “*”, which indicates 40 ppm.

[8] = 200 ppm, 0 = no control relative to controls

| Compound | Test F disease control rating [1, 8] | Test C disease control rating [2, 8] | Test D disease control rating [3, 8] | Test J disease control rating [4, 8] | Test I disease control rating [5, 8] | Test G disease control rating [6, 8] | Test H disease control rating [7, 8] | pest or weed control at 200 ppm [1, 8] | pest or weed control at 200 ppm [2, 8] | pest or weed control at 200 ppm [3, 8] | pest or weed control at 200 ppm [4, 8] | pest or weed control at 200 ppm [5, 8] | pest or weed control at 200 ppm [7, 8] | also measured |
| --- | --- | --- | --- | --- | --- | --- | --- | --- | --- | --- | --- | --- | --- | --- |
| 3-[4-[4-chloro-2-methyl-1-(4-methylphenyl)-1H-imidazol-5-yl]-3,5-difluorophenoxy]-N-methyl-1-propanamide hydrochloride [Compound 734] | 99% | 100% | 99% | 95% | 100% | 99% | 41% |  |  |  |  |  |  |  |
| 5-[4-chloro-5-(2,6-difluoro-4-methoxyphenyl)-1H-imidazol-1-yl]-2-(trifluoromethyl)pyridine [Example 34] |  |  |  |  |  |  |  |  |  |  |  |  |  | Test F disease control rating ([1]; 40 ppm (marked *)): 99* %; Test C disease control rating ([2]; 40 ppm (marked *)): 99* %; Test D disease control rating ([3]; 40 ppm (marked *)): 100* %; Test J disease control rating ([4]; 40 ppm (marked *)): 100* %; Test I disease control rating ([5]; 40 ppm (marked *)): 100* %; Test G disease control rating ([6]; 40 ppm (marked *)): 90* %; Test H disease control rating ([7]; 40 ppm (marked *)): 91* % |
| COc1cc(F)c(-c2c(Cl)nc(C=O)n2-c2ccc(F)cc2)c(F)c1 [Compound 276, 4-chloro-5-(2,6-difluoro-4-methoxyphenyl)-1-(4-fluorophenyl)-1H-imidazole-2-carboxaldehyde] |  |  |  |  |  |  |  |  |  |  |  |  |  | pest or weed control at 200 ppm ([1]; 200 ppm, 0 = no control): 0%; pest or weed control at 200 ppm ([2]; 200 ppm, 0 = no control): 100%; pest or weed control at 200 ppm ([3]; 200 ppm, 0 = no control): 100%; pest or weed control at 200 ppm ([4]; 200 ppm, 0 = no control): 100%; pest or weed control at 200 ppm ([5]; 200 ppm, 0 = no control): 98%; pest or weed control at 200 ppm ([6]; 200 ppm, 0 = no control): 92%; pest or weed control at 200 ppm ([7]; 200 ppm, 0 = no control): 9% |
| COc1cc(F)c(-c2c(Cl)nc(CO)n2-c2ccc(F)cc2)c(F)c1 [Compound 298, 4-chloro-5-(2,6-difluoro-4-methoxyphenyl)-1-(4-fluorophenyl)-1H-imidazole-2-methanol] |  |  |  |  |  |  |  | 0% | 100% | 100% | 0% | 98% | 0% | pest or weed control at 200 ppm [6, 8]: 96% |
| Cc1nn(C)c(Cc2ccc(F)cc2F)c1-c1ccc(F)cc1Cl [Compound 313, 4-(2-chloro-4-fluorophenyl)-5-[(2,4-difluorophenyl)methyl]-1,3-dimethyl-1H-pyrazole] |  |  |  |  |  |  |  | 0% | 99% | 100% | 99% | 100% | 95% |  |
| COc1cc(F)c(-c2c(Cl)nc(CF)n2-c2ccc(F)cc2)c(F)c1 [Compound 331, 4-chloro-5-(2,6-difluoro-4-methoxyphenyl)-2-(fluoromethyl)-1-(4-fluorophenyl)-1H-imidazole] |  |  |  |  |  |  |  | 99% | 100% | 100% | 100% | 100% | 85% | pest or weed control at 200 ppm [6, 8]: 95% |
| COc1cc(F)c(-c2c(Cl)nc(C=NO)n2-c2ccc(F)cc2)c(F)c1 [Compound 349, 4-chloro-5-(2,6-difluoro-4-methoxyphenyl)-1-(4-fluorophenyl)-1H-imidazole-2-carboxaldehyde oxime] |  |  |  |  |  |  |  | 99% | 100% | 99% | 95% | 99% | 0% | pest or weed control at 200 ppm [6, 8]: 88% |
| N#Cc1ccc(F)c(-c2c(Cl)ncn2-c2ccc(Cl)cc2)c1F [Compound 386, 3-[4-chloro-1-(4-chlorophenyl)-1H-imidazol-5-yl]-2,4-difluorobenzonitrile] |  |  |  |  |  |  |  | 0% | 99% | 100% | 95% | 98% | 0% | pest or weed control at 200 ppm [6, 8]: 96% |
| COc1cc(F)c(-c2c(Cl)nc(C)n2-c2ccc(SC#N)cc2)c(F)c1 [Compound 741, 4-[4-chloro-5-(2,6-difluoro-4-methoxyphenyl)-2-methyl-1H-1-yl]phenyl thiocyanate] | 92% | 100% | 99% | 72% | 99% |  | 0% |  |  |  |  |  |  |  |
| Cc1nc(C)n(-c2ccc(Cl)cc2)c1-c1c(F)cc(F)cc1F [compound 45] | 100% | 100% | 98% | 100% | 100% |  | 99% |  |  |  |  |  |  |  |
| Cc1nn(C)c(Cc2cccc(F)c2)c1-c1ccc(F)cc1Cl [compound 311] | 0% | 98% | 9% | 95% | 99% |  | 100% |  |  |  |  |  |  |  |
| Cc1nn(C)c(Cc2ccc(F)cc2)c1-c1ccc(F)cc1Cl [compound 312] | 0% | 99% | 82% | 92% | 99% |  | 9% |  |  |  |  |  |  |  |
| COc1nc(Cl)c(-c2c(Cl)nc(Cl)n2-c2ccc(Cl)c(F)c2)s1 [compound 456] | 0% | 0% | 0% | 43% | 0% | 88% |  |  |  |  |  |  |  |  |
| Fc1cc(-n2c(Cl)nc(Cl)c2-c2cccnc2Cl)ccc1Cl [compound 458] | 0% | 96% | 16% | 89% | 95% | 92% |  |  |  |  |  |  |  |  |
| Fc1cc(F)c(-c2c(Cl)nc(Cl)n2-c2cccc(OC(F)F)c2)c(F)c1 [compound 597] | 97% | 100% | 100% | 100% |  | 98% | 99% |  |  |  |  |  |  |  |
| COc1cc(F)c(-c2c(Cl)nc(Br)n2-c2ccc(Cl)nc2)c(F)c1 [compound 729] | 99% | 100% | 100% | 100% | 100% | 99% |  |  |  |  |  |  |  |  |

Reference: patent US20110045101A1, “FUNGICIDAL SUBSTITUTED AZOLES” (E.I. Du Pont De Nemours and Company, priority 2009, published 2011)
